Results taken from patent publication EP0584797A2, “Novel cephalosporin compounds and processes for the preparation thereof” (LUCKY LTD., priority 1992, dated 1994).
Converted amounts (≈) assume the structure as drawn.

Assays:
Assay in all cases: minimal inhibitory concentration, two-fold agar dilution
Assay type in all cases: cell-based
[1] = system: Klebsiella pneumoniae ATCC 10031; conditions: ATCC10031, Muller-Hinton agar, 37°C, 20 hours, read-out: MIC values against the standard strains
Description: (§1) These MIC values were taken by employing a two-fold dilution method: that is, two-fold serial dilutions of each of the test compounds were made and dispersed in a Muller-Hinton agar medium; 2µl of the standard test strain which had the 10⁷ CFU(Colony Forming Unit) per ml was inoculated on the medium; and these were incubated at 37°C for 20 hours.

[2] = system: Bacillus megaterium ATCC 9885; conditions: Priestia megaterium, ATCC9885; Muller-Hinton agar; 37°C; 20 hours; read-out: MIC values against the standard strains
Description: as §1

[3] = system: Providencia rettgeri ATCC 9250; conditions: ATCC9250, Muller-Hinton agar, 37°C, 20 hours, read-out: MIC values against the standard strains
Description: as §1

[4] = system: Serratia marcescens ATCC 27117; conditions: ATCC27117, Muller-Hinton agar, 37°C, 20 hours, read-out: MIC values against the standard strains
Description: as §1

[5] = system: Streptococcus faecalis ATCC 29212; conditions: Enterococcus faecalis, ATCC29212; Muller-Hinton agar; 37°C; 20 hours; read-out: MIC values against the standard strains
Description: as §1

[6] = system: Micrococcus luteus ATCC 9341; conditions: ATCC9341, Muller-Hinton agar, 37°C, 20 hours, read-out: MIC values against the standard strains
Description: as §1

[7] = system: Staphylococcus aureus ATCC 6538p; conditions: ATCC6538P, Muller-Hinton agar, 37°C, 20 hours, read-out: MIC values against the standard strains
Description: as §1

[8] = system: Salmonella typhimurium ATCC 14028; conditions: Salmonella enterica; Muller-Hinton agar; 37°C; 20 hours; read-out: MIC values against the standard strains
Description: as §1

[9] = system: Acinetobacter calcoaceticus ATCC 15473; conditions: ATCC15473, Muller-Hinton agar, 37°C, 20 hours, read-out: MIC values against the standard strains
Description: as §1

[10] = system: Shigella sonnei ATCC 11060; conditions: ATCC11060, Muller-Hinton agar, 37°C, 20 hours, read-out: MIC values against the standard strains
Description: as §1

[11] = system: Escherichia coli ATCC 10536; conditions: ATCC10536, Muller-Hinton agar, 37°C, 20 hours, read-out: MIC values against the standard strains
Description: as §1

[12] = system: Citrobacter freundii ATCC 8090; conditions: ATCC8090, Muller-Hinton agar, 37°C, 20 hours, read-out: MIC values against the standard strains
Description: as §1

[13] = system: Shigella flexneri ATCC 11836; conditions: ATCC11836, Muller-Hinton agar, 37°C, 20 hours, read-out: MIC values against the standard strains
Description: as §1

[14] = system: Escherichia coli ATCC 25922; conditions: ATCC25922, Muller-Hinton agar, 37°C, 20 hours, read-out: MIC values against the standard strains
Description: as §1

[15] = system: Pseudomonas aeruginosa ATCC 27853; conditions: ATCC27853, Muller-Hinton agar, 37°C, 20 hours, read-out: MIC values against the standard strains
Description: as §1

[16] = system: Pseudomonas aeruginosa ATCC 25619; conditions: ATCC25619, Muller-Hinton agar, 37°C, 20 hours, read-out: MIC values against the standard strains
Description: as §1

[17] = system: Enterobacter cloacae ATCC 27508; conditions: ATCC27508, Muller-Hinton agar, 37°C, 20 hours, read-out: MIC values against the standard strains
Description: as §1

[18] = system: Bacillus cereus ATCC 11778; conditions: ATCC11778, Muller-Hinton agar, 37°C, 20 hours, read-out: MIC values against the standard strains
Description: as §1

[19] = system: Pseudomonas aeruginosa ATCC 10145; conditions: ATCC10145, Muller-Hinton agar, 37°C, 20 hours, read-out: MIC values against the standard strains
Description: as §1

[20] = system: Enterobacter aerogenes ATCC 29751; conditions: Klebsiella aerogenes, ATCC29751; Muller-Hinton agar; 37°C; 20 hours; read-out: MIC values against the standard strains
Description: as §1

[21] = system: Morganella morganii ATCC 8076h; conditions: ATCC8076H, Muller-Hinton agar, 37°C, 20 hours, read-out: MIC values against the standard strains
Description: as §1

[22] = system: Proteus vulgaris ATCC 6059; conditions: ATCC6059, Muller-Hinton agar, 37°C, 20 hours, read-out: MIC values against the standard strains
Description: as §1

[23] = system: Staphylococcus aureus ATCC 10537; conditions: ATCC10537, Muller-Hinton agar, 37°C, 20 hours, read-out: MIC values against the standard strains
Description: as §1

[24] = system: Staphylococcus epidermidis ATCC 12228; conditions: ATCC12228, Muller-Hinton agar, 37°C, 20 hours, read-out: MIC values against the standard strains
Description: as §1

[25] = system: Proteus mirabilis ATCC 25933; conditions: ATCC25933, Muller-Hinton agar, 37°C, 20 hours, read-out: MIC values against the standard strains
Description: as §1

Compound	MIC [1]	MIC [2]	MIC [3]	MIC [4]	MIC [5]	MIC [6]	MIC [7]	MIC [8]	MIC [9]	MIC [10]	MIC [11]	MIC [12]	MIC [13]	MIC [14]	MIC [15]	MIC [16]	MIC [17]	MIC [18]	MIC [19]	MIC [20]	also measured
CCO/N=C(\C(=O)N[C@@H]1C(=O)N2C(C(=O)[O-])=C(CSc3nc(N)cc(OCC(=O)O)[n+]3C)CS[C@H]12)c1csc(N)n1 [Example 19, 7-[(Z)-2-(2-aminothiazol-4-yl)-2-(ethoxyimino)acetamido]-3-(4-amino-6-carboxymethoxy-1-methylpyrimidinium-2-yl)thiomethyl-3-cephem-4-carboxylate]	0.031 µg/mL (≈ 0.0496 µM)	0.25 µg/mL (≈ 0.4 µM)	≤ 0.008 µg/mL	0.25 µg/mL (≈ 0.4 µM)	64 µg/mL (≈ 102 µM)	0.13 µg/mL (≈ 0.208 µM)	4 µg/mL (≈ 6.4 µM)	0.25 µg/mL (≈ 0.4 µM)	16 µg/mL (≈ 25.6 µM)	0.063 µg/mL (≈ 0.101 µM)	0.063 µg/mL (≈ 0.101 µM)	0.063 µg/mL (≈ 0.101 µM)	0.031 µg/mL (≈ 0.0496 µM)	0.063 µg/mL (≈ 0.101 µM)	16 µg/mL (≈ 25.6 µM)	8 µg/mL (≈ 12.8 µM)	≤ 0.008 µg/mL	128 µg/mL (≈ 205 µM)	32 µg/mL (≈ 51.2 µM)	1 µg/mL (≈ 1.6 µM)	MIC [21]: ≤ 0.008 µg/mL; MIC [22]: 0.063 µg/mL (≈ 0.101 µM); MIC [23]: 2 µg/mL (≈ 3.2 µM); MIC [24]: 2 µg/mL (≈ 3.2 µM); MIC [25]: 0.063 µg/mL (≈ 0.101 µM)
CC(C)(O/N=C(\C(=O)N[C@@H]1C(=O)N2C(C(=O)[O-])=C(CSc3nc(N)cc[n+]3N)CS[C@H]12)c1csc(N)n1)C(=O)O [Example 43]	0.063 µg/mL (≈ 0.103 µM)	0.5 µg/mL (≈ 0.82 µM)	≤ 0.008 µg/mL	0.13 µg/mL (≈ 0.213 µM)	> 128 µg/mL	0.5 µg/mL (≈ 0.82 µM)	8 µg/mL (≈ 13.1 µM)	0.13 µg/mL (≈ 0.213 µM)	2 µg/mL (≈ 3.28 µM)	0.063 µg/mL (≈ 0.103 µM)	0.063 µg/mL (≈ 0.103 µM)	0.063 µg/mL (≈ 0.103 µM)	0.031 µg/mL (≈ 0.0508 µM)	0.063 µg/mL (≈ 0.103 µM)	1 µg/mL (≈ 1.64 µM)	1 µg/mL (≈ 1.64 µM)	≤ 0.008 µg/mL	128 µg/mL (≈ 210 µM)	2 µg/mL (≈ 3.28 µM)	0.5 µg/mL (≈ 0.82 µM)	MIC [21]: ≤ 0.008 µg/mL; MIC [22]: 0.031 µg/mL (≈ 0.0508 µM); MIC [23]: 2 µg/mL (≈ 3.28 µM); MIC [24]: 2 µg/mL (≈ 3.28 µM); MIC [25]: 0.031 µg/mL (≈ 0.0508 µM)
Nc1cc[n+](N)c(SCC2=C(C(=O)[O-])N3C(=O)[C@@H](NC(=O)/C(=N\OCC(=O)O)c4csc(N)n4)[C@H]3SC2)n1 [Example 75, 7-[(Z)-2-(2-aminothiazol-4-yl)-2-(carboxymethoxyimino)acetamido]-3-(1,4-diaminopyrimidinium-2-yl)thiomethyl-3-cephem-4-carboxylate]	0.016 µg/mL (≈ 0.0275 µM)	0.5 µg/mL (≈ 0.86 µM)	≤ 0.008 µg/mL	0.031 µg/mL (≈ 0.0533 µM)	> 128 µg/mL	2 µg/mL (≈ 3.44 µM)	8 µg/mL (≈ 13.8 µM)	0.063 µg/mL (≈ 0.108 µM)	4 µg/mL (≈ 6.88 µM)	0.016 µg/mL (≈ 0.0275 µM)	0.016 µg/mL (≈ 0.0275 µM)	0.031 µg/mL (≈ 0.0533 µM)	0.016 µg/mL (≈ 0.0275 µM)	0.016 µg/mL (≈ 0.0275 µM)	4 µg/mL (≈ 6.88 µM)	4 µg/mL (≈ 6.88 µM)	≤ 0.008 µg/mL	128 µg/mL (≈ 220 µM)	8 µg/mL (≈ 13.8 µM)	0.5 µg/mL (≈ 0.86 µM)	MIC [21]: ≤ 0.008 µg/mL; MIC [22]: 0.031 µg/mL (≈ 0.0533 µM); MIC [23]: 4 µg/mL (≈ 6.88 µM); MIC [24]: 4 µg/mL (≈ 6.88 µM); MIC [25]: 0.063 µg/mL (≈ 0.108 µM)
